From PMC5866846 (Archives of Toxicology, 2017)
Where two headings read alike, the source gives them in different places. Values belong to the molecule of their own block, whether it stands above or below them.

What was measured:
GSTA2 gene expression = GSTA2 gene expression in upcyte hepatocytes (Fluidigm RT-PCR); format: cell-based, human; details: rifampicin 30 µM, 72 h
Source text: (§1) […]. […] […].
[…]. As control 0.05 % DMSO was used.

ABCB1 gene expression = ABCB1 gene expression in upcyte hepatocytes (Fluidigm RT-PCR); format: cell-based, human; details: rifampicin 30 µM, 72 h
Source text: Total RNA was isolated from cells using the Direct-zol™ RNA MiniPrep kit (Zymo Research Corp., Irvine, California). cDNA was synthesized using TaqMan Reverse Transcription Reagents (Life technologies, Applera GmbH, Darmstadt, Germany) and the expression of 25 genes representative of phase I and phase II drug metabolism and transport was quantified by Fluidigm’s BioMark HD high-throughput quantitative chip platform (Fluidigm Corporation, San Francisco, USA). For relative gene expression analysis, the delta-delta-Ct (ΔΔCt) method was used: the Ct values of the target mRNA were first normalized to those of the endogenous control glyceraldehyde-3-phosphate dehydrogenase (GAPDH) followed by dividing values of experimental samples by their corresponding DMSO-treated controls to calculate the x-fold changes of mRNA expression.
In HLM and supersome™ incubations the formation rate is given as nmol µg^−1 min^−1 and fmol pmol^−1 min^−1, respectively, and was calculated as the mean ± SD. […] The intrinsic Clearance (Clint) was given as Vmax/Km ratio. […] In induction and inhibition experiments corresponding EC50 and IC50 values were calculated by nonlinear regression. […]
(§2) As control 0.05 % DMSO was used. The basal CYP activity and induction of CYP activity compared to the DMSO control were measured via HPLC-ESI-MS/MS.

[1] = test system: CYP1A2, 2C19, 2C9, 2B6, 3A4 and 2C8; assay: CYP activity in upcyte hepatocytes after treatment, all tested CYP isoenzymes together; format: cell-based, human; details: 5 µM, 72 h
Description: (§3) Cells were cultivated in hepatocyte culture medium at 37 °C and 5 °% CO2 in a humidified incubator. Before starting experiments, cells were cultivated in hepatocyte culture medium containing 0.5% (v/v) DMSO (Preculture medium) for 5 days (density of 0.8 × 10^4 cells/cm^2) and were subcultivated in high-performance medium containing 0.1% (v/v) DMSO (Metabolism conditioning medium) for 3–5 days (density of 1.6 × 10^5 cells/cm^2, confluence). The medium was replaced every 2–3 days.
(§4) In HLM and supersome™ incubations the formation rate is given as nmol µg^−1 min^−1 and fmol pmol^−1 min^−1, respectively, and was calculated as the mean ± SD. […] The intrinsic Clearance (Clint) was given as Vmax/Km ratio. […] Activity of CYP enzymes in induction assays is given as the fold-change (mean ± SD) compared to the corresponding DMSO-treated control. […] Gene expression patterns of treated cells are given as fold-change compared to the corresponding DMSO-treated control samples, as described above. […] In induction and inhibition experiments corresponding EC50 and IC50 values were calculated by nonlinear regression. In all experiments a level of probability (p) ≤ 0.05 for statistical testing was considered significant.

[2] = test system: upcyte hepatocytes 653-03 2D6; assay: Tam metabolism in upcyte hepatocytes 653-03 2D6, metabolites in culture medium; format: in vitro ADME, human; details: cells incubated with 1 µM Tam up to 144 h
Description: (§5) The medium was replaced every 2–3 days. […].
(§6) The culture medium was collected after 24, 48, 72, 96 and 144 h followed by metabolite measurements using HPLC-ESI-MS/MS.
(§7) Protein was precipitated by the addition of ACN containing 1% of acetic acid and the corresponding deuterated internal standards to the same volume of the sample followed by centrifugation at 20.000 g for 15 min at RT. […] Analytes were separated on a Zorbax Eclipse Plus C18 column (1.8 µm, 100 × 2.1 mm, Agilent technologies) and detected on a 6460 triple quadrupole mass spectrometer (Agilent technologies) in positive ESI MRM mode. Glucuronides of estrogen-like metabolites were detected separately via MS/MS-measurements in negative ESI MRM mode.
as §1

[3] = test system: upcyte hepatocytes 653-03; assay: Tam metabolism in upcyte hepatocytes 653-03 (parental), metabolites in culture medium; format: in vitro ADME, human; details: cells incubated with 1 µM Tam up to 144 h, parental 653-03
Description: as §5, §6, §7, §1

[4] = Formation kinetics of Tam-Bis, (Z)- and (E)-Met E in HLM with increasing substrate concentrations; format: in vitro ADME, human; details: substrate 1 to 50 µM, Michaelis-Menten
Description: The reaction was started by adding a NADPH regenerating system (5 mM MgCl2, 5 mM glucose-6-phosphate, 0.5 mM NADP^+ and 10 U glucose-6-phosphate-dehydrogenase in 100 mM sodium phosphate buffer pH 7.4) to the samples and immediately put in a 37 °C water bath for 30 min. The reaction was stopped with the same volume of acetonitrile (ACN) containing 1% of acetic acid together with the corresponding deuterated internal standards. Regarding incubations with Supersomes™ containing UGTs, 5 µg of protein was incubated with 250 mM MgCl2 and 2.5 ng of alamethicin for 30 min on ice, followed by 10 min at 37 °C in a water bath. Subsequently, the Supersomes™ were incubated with 10 µM of substrates (Tam-Bis, (E)- and (Z)-Met E) and the glucuronidation was started by addition of 10 mM of uridine 5′-diphospho-glucuronic acid to the samples in a water bath at 37 °C for 30 min. The reaction was stopped as described above. Metabolites were analyzed by HPLC-ESI-MS/MS.
For the assessment of formation kinetics of Tam-Bis, (E)- and (Z)-Metabolite E, HLM were incubated with increasing substrate concentrations ranging from 1 to 50 µM as described above. As control for each concentration a sample without NADPH-regenerating system was prepared. […]

CYP1A2 = CYP1A2 activity in upcyte hepatocytes after treatment (probe substrate cocktail); details: read-out: EC50 of induction of CYP1A2 activity, 72 h, 50 pM to 5 µM
Description: as §3, §4, §2

CYP2C9 = CYP2C9 (Homo sapiens, UniProt P11712); assay: CYP2C9 activity in upcyte hepatocytes after treatment (probe substrate cocktail); format: cell-based; parameters: host or cells: upcyte hepatocytes 653-03 and 653-03 #138 (653-03 2D6); details: human, probe tolbutamide (100 µM), upcyte hepatocytes, 50 pM to 5 µM, read-out: EC50 of induction of CYP2C9 activity
Chain of CYP2C9 (P11712 whole entry): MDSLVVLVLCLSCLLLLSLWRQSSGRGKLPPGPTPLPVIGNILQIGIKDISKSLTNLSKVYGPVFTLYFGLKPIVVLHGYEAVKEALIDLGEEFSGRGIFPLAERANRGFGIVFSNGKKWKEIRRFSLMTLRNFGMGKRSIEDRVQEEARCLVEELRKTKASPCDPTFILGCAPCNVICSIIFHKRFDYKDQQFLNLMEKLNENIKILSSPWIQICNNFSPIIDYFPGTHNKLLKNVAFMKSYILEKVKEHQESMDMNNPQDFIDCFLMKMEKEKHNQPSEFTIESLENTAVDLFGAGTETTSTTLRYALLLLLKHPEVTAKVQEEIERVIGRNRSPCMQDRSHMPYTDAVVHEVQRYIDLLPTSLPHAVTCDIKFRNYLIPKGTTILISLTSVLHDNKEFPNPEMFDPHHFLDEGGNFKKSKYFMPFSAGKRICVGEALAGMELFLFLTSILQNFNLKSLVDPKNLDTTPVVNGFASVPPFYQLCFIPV
Description: as §3, §4, §2

[5] = test system: upcyte hepatocytes 653-03 and 653-03 2D6; assay: Tam metabolism in upcyte hepatocytes, cell strain not distinguished; format: in vitro ADME, human; details: cells incubated with 1 µM Tam; highest concentration, decreased over time
Description: as §5, §6, §7, §1

CYP1A1 gene expression = CYP1A1 gene expression in upcyte hepatocytes (Fluidigm RT-PCR); format: cell-based, human; details: 5 µM, 72 h, both cell strains
Source text: Differences between induced and control samples were compared using Welch’s t-test (GraphPad Prism, version 5.04), when the fold-change was considered biologically relevant (1.5-fold increase or decrease in fold-changes) and corrected for multiple testing according to Bonferroni. […] An unpaired t-test assuming unequal variances was used for testing of differences in the expression patterns, when the fold-change was considered biologically relevant (1.5-fold increase or decrease in fold-changes) and corrected using Bonferroni adjustments.

CYP2C8 = biological target: T1, CYP2C8 (Homo sapiens, UniProt P10632); assay: CYP2C8 activity in upcyte hepatocytes after treatment (probe substrate cocktail); format: cell-based; parameters: host or cells: upcyte hepatocytes 653-03 and 653-03 #138 (653-03 2D6); details: upcyte hepatocytes, 72 h, 50 pM to 5 µM; read-out: EC50 of induction of CYP2C8 activity
T1 sequence (P10632 1-490): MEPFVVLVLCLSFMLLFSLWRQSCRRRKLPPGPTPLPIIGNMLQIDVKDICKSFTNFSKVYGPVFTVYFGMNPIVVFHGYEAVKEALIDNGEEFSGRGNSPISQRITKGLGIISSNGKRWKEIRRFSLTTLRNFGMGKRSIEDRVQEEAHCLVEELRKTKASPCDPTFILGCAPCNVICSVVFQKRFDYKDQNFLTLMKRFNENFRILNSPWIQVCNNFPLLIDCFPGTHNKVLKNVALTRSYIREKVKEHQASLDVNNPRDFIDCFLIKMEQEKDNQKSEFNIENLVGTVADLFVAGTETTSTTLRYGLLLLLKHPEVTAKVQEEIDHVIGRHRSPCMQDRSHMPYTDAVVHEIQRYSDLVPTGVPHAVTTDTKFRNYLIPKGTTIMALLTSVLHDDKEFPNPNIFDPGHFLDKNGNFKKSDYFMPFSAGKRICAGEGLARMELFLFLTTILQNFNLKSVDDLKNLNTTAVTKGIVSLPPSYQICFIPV
Description: as §3, §4, §2

CYP2B6 = CYP2B6 activity in upcyte hepatocytes after treatment (probe substrate cocktail); details: read-out: EC50 of induction of CYP2B6 activity; upcyte hepatocytes, 72 h, 50 pM to 5 µM
Description: as §3, §4, §2

CYP2C19 = CYP2C19 (Homo sapiens, UniProt P33261); assay: CYP2C19 activity in upcyte hepatocytes after treatment (probe substrate cocktail); format: cell-based; parameters: host or cells: upcyte hepatocytes 653-03 and 653-03 #138 (653-03 2D6); details: upcyte hepatocytes, 72 h, 50 pM to 5 µM; read-out: EC50 of induction of CYP2C19 activity
Chain of CYP2C19 (P33261 whole entry): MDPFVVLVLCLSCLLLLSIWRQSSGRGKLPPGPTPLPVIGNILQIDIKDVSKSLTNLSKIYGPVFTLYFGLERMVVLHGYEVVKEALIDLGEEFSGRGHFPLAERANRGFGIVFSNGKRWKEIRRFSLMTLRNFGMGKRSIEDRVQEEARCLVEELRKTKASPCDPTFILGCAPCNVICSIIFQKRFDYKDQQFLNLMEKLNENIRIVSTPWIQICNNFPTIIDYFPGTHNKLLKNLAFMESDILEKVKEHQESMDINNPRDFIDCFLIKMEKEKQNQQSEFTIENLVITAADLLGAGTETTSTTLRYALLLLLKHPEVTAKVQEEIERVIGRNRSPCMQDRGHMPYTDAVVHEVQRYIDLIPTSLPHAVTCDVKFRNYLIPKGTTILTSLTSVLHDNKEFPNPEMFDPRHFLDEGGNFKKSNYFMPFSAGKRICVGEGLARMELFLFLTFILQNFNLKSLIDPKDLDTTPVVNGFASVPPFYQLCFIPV
Description: as §3, §4, §2

CYP3A4 = CYP3A4 activity in upcyte hepatocytes after treatment (probe substrate cocktail); details: 72 h
Description: as §3, §4, §2

estrogen receptor = test system: estrogen receptor; parameters: method as in Johnson et al. [1989]; Murphy et al. [1990]; details: in vitro, estrogen-dependent breast cancer cell lines; ref Johnson et al. [1989]; Murphy et al. [1990]; cited from earlier work

SMILES: CO[C@H]1/C=C/O[C@@]2(C)Oc3c(C)c(O)c4c(O)c(c(/C=N/N5CCN(C)CC5)c(O)c4c3C2=O)NC(=O)/C(C)=C\C=C\[C@H](C)[C@H](O)[C@@H](C)[C@@H](O)[C@@H](C)[C@H](OC(C)=O)[C@@H]1C [Rifa, rifampicin]
GSTA2 gene expression, induction (GSTA2 gene expression): 2.6 fold
ABCB1 gene expression, induction (ABCB1 gene expression): 1.7 fold

SMILES: CCC(=C(c1ccccc1)c1ccc(O)cc1)c1ccccc1 [Met E, 4-[1,2-diphenylbut-1-en-1-yl]phenol]
inhibitory effect on the tested CYP enzymes [1]: did not act as CYP inhibitors

concentration in the supernatant of 653-03 2D6 cells relative to parental cells [2]: up to 25 times
SMILES: CC/C(=C(/c1ccc(OCCN(C)C)cc1)c1ccc(O[C@@H]2O[C@H](C(=O)O)[C@@H](O)[C@H](O)[C@H]2O)cc1)c1ccccc1 [4OH-Tam-glucuronide, tamoxifen-4-O-glucuronide]

concentration in the culture medium [3]: up to 8 nM
Km ([4]; read-out: Km, (E)-Met E formation): 11.5 µM
Km ([4]; read-out: Km, (Z)-Met E formation): 102 µM
concentration in the culture medium ([2]; 653-03 2D6): ≤ 14 nM
SMILES: CC/C(=C(\c1ccccc1)c1ccc(OCCNC)cc1)c1ccccc1 [DM-Tam, N-desmethyltamoxifen]
V max, (E)-Met E formation [4]: 0.32 pmol/mg/min
V max, (Z)-Met E formation [4]: 6.1 pmol/mg/min

SMILES: CCC(=C(c1ccccc1)c1ccc(O)cc1)c1ccccc1 [(Z)-Met E, 4-[1,2-diphenylbut-1-en-1-yl]phenol]
EC50 (CYP1A2): > 5 µM
EC50 at 72 h (CYP2C9): > 5 µM
concentration in the supernatant of the cells [5]: up to 440 pM
CYP1A1 gene expression, induction vs DMSO control (CYP1A1 gene expression): 3.3 fold
EC50 (CYP2C8): > 5 µM
EC50 (CYP2B6): > 5 µM
V max, Bisphenol formation [4]: 17.2 pmol/mg/min
Km ([4]; read-out: Km, Bisphenol formation): 8.2 µM
EC50 (CYP2C19): > 5 µM
induction of CYP3A4 activity compared to DMSO control (CYP3A4; 5 µM, parental and derived cell line): weakly induced
EC50 (CYP3A4; read-out: EC50 of induction of CYP3A4 activity, upcyte hepatocytes, 50 pM to 5 µM): 0.308 µM
agonism regarding estrogen-regulated mRNA expression (estrogen receptor): full agonists
